Data reported in ChEMBL document CHEMBL4422652, “Synthesis and biological evaluation of novel oleanolic acid analogues as potential α-glucosidase inhibitors” (Eur J Med Chem, 2019).
Active and inactive are the calls of the source. The rule behind the calls is not given here.

Columns and labels:
[1] = Inhibition of baker's yeast alpha-glucosidase using phenol-alphaD-glycopyranoside as substrate preincubated for 10 mins followed by substrate addition and measured after 30 mins; design: species or system Saccharomyces cerevisiae
[2] = Inhibition of baker's yeast alpha-glucosidase using PNPG as substrate after 10 mins by spectrophotometric method; design: species or system Saccharomyces cerevisiae
NIH3T3 = assay: Cytotoxicity against mouse 3T3 cells assessed as growth inhibition measured after 48 hrs by MTT assay; type: cell-based; conditions: NIH3T3, 48 h
Saccharomyces cerevisiae = assay: Non-competitive inhibition of baker's yeast alpha-glucosidase assessed as Km for substrate using varying levels of phenol-alphaD-glycopyranoside as substrate preincubated for 10 mins followed by substrate addition and measured after 30 mins by double reciprocal plot analysis
[3] = Non-competitive inhibition of baker's yeast alpha-glucosidase using varying levels of phenol-alphaD-glycopyranoside as substrate preincubated for 10 mins followed by substrate addition and measured after 30 mins by double reciprocal plot analysis; design: species or system Saccharomyces cerevisiae
Mus musculus [4] = assay: Hypoglycemic activity in streptozocin-induced diabetic Kunming mouse assessed as reduction in blood glucose level at 50 mg/kg, po measured at 9 hrs post dose; type: functional, organism-based
Mus musculus [5] = assay: Hypoglycemic activity in streptozocin-induced diabetic Kunming mouse assessed as blood glucose level at 50 mg/kg, po administered once daily for 18 days measured on day 1 post dose (reference value: 18.86 +/- 0.7 mM); type: functional
Mus musculus [6] = assay: Hypoglycemic activity in streptozocin-induced diabetic Kunming mouse assessed as blood glucose level at 50 mg/kg, po administered once daily for 18 days measured on day 6 post dose (reference value: 22.31 +/- 1.05 mM); type: functional
Mus musculus [7] = assay: Hypoglycemic activity in streptozocin-induced diabetic Kunming mouse assessed as blood glucose level at 50 mg/kg, po administered once daily for 18 days measured on day 12 post dose (reference value: 23.09 +/- 1.45 mM); type: functional
Mus musculus [8] = assay: Hypoglycemic activity in streptozocin-induced diabetic Kunming mouse assessed as blood glucose level at 50 mg/kg, po administered once daily for 18 days measured on day 12 post dose (reference value: 23.27 +/- 1.03 mM); type: functional
[9] = Toxicity in streptozocin-induced diabetic Kunming mouse assessed as effect on body weight at 50 mg/kg, po administered once daily for 18 days measured every 6 days starting from day 1 during compound dosing; type: organism-based; conditions: in vivo
Mus musculus [10] = assay: Hypoglycemic activity in streptozocin-induced diabetic Kunming mouse assessed as reduction in blood glucose level at 50 mg/kg, po treated 30 mins prior to glucose challenge and measured up to 210 mins by OGTT; type: functional, organism-based
Mus musculus [11] = assay: Hypoglycemic activity in streptozocin-induced diabetic Kunming mouse assessed as reduction in blood glucose AUC at 50 mg/kg, po treated 30 mins prior to glucose challenge and measured up to 210 mins by OGTT; type: functional, organism-based

Q: Which IC50 [1] does the source give for COc1ncc(F)cc1/C=C1\C[C@]2(C)[C@H]3C[C@@H](F)[C@]45OC(=O)[C@@]6(CCC(C)(C)C[C@H]64)CC[C@@]5(C)[C@]3(C)CC[C@H]2C(C)(C)C1=O here?
A: 2050 nM

Q: Which IC50 [1] does the source give for CC1(C)CC[C@@]23CC[C@]4(C)[C@](OC2=O)([C@H](F)C[C@@H]2[C@@]5(C)C/C(=C\c6ccc(Br)cc6F)C(=O)C(C)(C)[C@@H]5CC[C@]24C)[C@@H]3C1 here?
A: 1170 nM

Q: For CC1(C)CC[C@@]23CC[C@]4(C)[C@](OC2=O)([C@H](F)C[C@@H]2[C@@]5(C)C/C(=C\c6cnccn6)C(=O)C(C)(C)[C@@H]5CC[C@]24C)[C@@H]3C1, which IC50 [1] is on record?
A: 3140 nM

Q: Which IC50 [1] does the source give for CC1(C)CC[C@@]23CC[C@]4(C)[C@](OC2=O)([C@H](F)C[C@@H]2[C@@]5(C)C/C(=C\c6cccc(Br)c6)C(=O)C(C)(C)[C@@H]5CC[C@]24C)[C@@H]3C1 here?
A: 1860 nM

Q: With COc1ccccc1/C=C1\C[C@]2(C)[C@H]3C[C@@H](F)[C@]45OC(=O)[C@@]6(CCC(C)(C)C[C@H]64)CC[C@@]5(C)[C@]3(C)CC[C@H]2C(C)(C)C1=O as the molecule, how does the IC50 [1] read?
A: 2740 nM

Q: For CC1(C)CC[C@]2(C(=O)O)CC[C@]3(C)C(=CC[C@@H]4[C@@]5(C)CC[C@H](O)C(C)(C)[C@@H]5CC[C@]43C)[C@@H]2C1 [OLEANOLIC_ACID], which IC50 [1] is on record?
A: 2410 nM

Q: Which IC50 [1] does the source give for CC1(C)CC[C@@]23CC[C@]4(C)[C@](OC2=O)([C@H](F)C[C@@H]2[C@@]5(C)C/C(=C\c6ccccn6)C(=O)C(C)(C)[C@@H]5CC[C@]24C)[C@@H]3C1 here?
A: 2670 nM

Q: With CC1(C)CC[C@@]23CC[C@]4(C)[C@](OC2=O)([C@H](F)C[C@@H]2[C@@]5(C)C/C(=C\c6cccc(F)c6)C(=O)C(C)(C)[C@@H]5CC[C@]24C)[C@@H]3C1 as the molecule, how does the IC50 [1] read?
A: 2790 nM

Q: For CC1(C)CC[C@@]23CC[C@]4(C)[C@](OC2=O)([C@H](F)C[C@@H]2[C@@]5(C)C/C(=C\c6ccc(C(F)(F)F)cc6)C(=O)C(C)(C)[C@@H]5CC[C@]24C)[C@@H]3C1, which IC50 [1] is on record?
A: 1510 nM

Q: And the IC50 [2]?
A: 1900 nM

Q: For CC1(C)CC[C@@]23CC[C@]4(C)[C@](OC2=O)([C@H](F)C[C@@H]2[C@@]5(C)CC[C@H](O)C(C)(C)[C@@H]5CC[C@]24C)[C@@H]3C1, which IC50 [1] is on record?
A: 8120 nM

Q: For Cc1cccc(/C=C2\C[C@]3(C)[C@H]4C[C@@H](F)[C@]56OC(=O)[C@@]7(CCC(C)(C)C[C@H]75)CC[C@@]6(C)[C@]4(C)CC[C@H]3C(C)(C)C2=O)c1, which IC50 [1] is on record?
A: 2160 nM

Q: Which IC50 [1] does the source give for CC1(C)CC[C@@]23CC[C@]4(C)[C@](OC2=O)([C@H](F)C[C@@H]2[C@@]5(C)C/C(=C\c6ccc(F)cc6)C(=O)C(C)(C)[C@@H]5CC[C@]24C)[C@@H]3C1 here?
A: 1510 nM

Q: With C[C@@H]1C[C@@H]([C@H](O)CC2CC(=O)NC(=O)C2)C(=O)[C@@H](C)C1 [CYCLOHEXIMIDE] as the molecule, how does the IC50 (NIH3T3) read?
A: 250 nM

Q: With CC1(C)CC[C@@]23CC[C@]4(C)[C@](OC2=O)([C@H](F)C[C@@H]2[C@@]5(C)C/C(=C\c6ccccc6Br)C(=O)C(C)(C)[C@@H]5CC[C@]24C)[C@@H]3C1 as the molecule, how does the IC50 [1] read?
A: 2510 nM

Q: For CC1(C)CC[C@@]23CC[C@]4(C)[C@](OC2=O)([C@H](F)C[C@@H]2[C@@]5(C)C/C(=C\c6ccc(Cl)cc6)C(=O)C(C)(C)[C@@H]5CC[C@]24C)[C@@H]3C1, which IC50 [1] is on record?
A: 690 nM

Q: And the Km (Saccharomyces cerevisiae)?
A: 120 µM

Q: What about the Ki [3] of the same molecule?
A: 880 nM

Q: What about the IC50 (NIH3T3) of the same molecule?
A: > 300000 nM

Q: And the Activity (Mus musculus [4])?
A: Active

Q: What about the Activity (Mus musculus [5]) of the same molecule?
A: 19.59 mM

Q: And the Activity (Mus musculus [6])?
A: 23.59 mM

Q: What about the Activity (Mus musculus [7]) of the same molecule?
A: 20.25 mM

Q: And the Activity (Mus musculus [8])?
A: 16.22 mM

Q: What about the Activity [9] of the same molecule?
A: Non-Toxic

Q: What about the Activity (Mus musculus [10]) of the same molecule?
A: Active

Q: And the Activity (Mus musculus [11])?
A: Active

Q: With Cc1ccccc1/C=C1\C[C@]2(C)[C@H]3C[C@@H](F)[C@]45OC(=O)[C@@]6(CCC(C)(C)C[C@H]64)CC[C@@]5(C)[C@]3(C)CC[C@H]2C(C)(C)C1=O as the molecule, how does the IC50 [1] read?
A: 1580 nM
